Columns and labels:
mPTP [1] = assay: mPTP activity (Ca2+ retention) assay in isolated rat liver mitochondria; format: biochemical; conditions: isolated rat liver mitochondria; Fluo5N fluorescence at 10 min after CaCl2 (75 μM) bolus; DMSO 0%, 5 μM cyclosporin A 100% inhibition
Description: Pharmacological inhibition or modulation of the mPTP can be measured in well characterised ‘Ca^2+ retention’ assays performed in isolated mitochondria. In vitro, isolated mitochondria rapidly sequester exogenous Ca^2+ until the intramitochondrial Ca^2+ concentration reaches the threshold for mPTP activation. Once the pore is activated, mitochondrial integrity is compromised and the stored Ca^2+ is released. The distribution of Ca^2+ between extra- and intra-mitochondrial compartments can be measured in real time with the use of membrane-impermeant Ca^2+ sensitive fluorescent dyes. Depending on the configuration of the assay, inhibition or modulation of the mPTP either delays the opening of the pore or increases the concentration of Ca^2+ required to induce mPTP opening.
MPTP activity was measured in mitochondria freshly isolated from female Sprague Dawley (250 to 300 gram) rat livers using the following method. Cervical dislocation was performed on the rat. The liver was then perfused in-situ with ~40 ml cold Dulbecco's Phosphate Buffered Saline (DPBS) prior to dissection and transferred into 30 ml Isolation Buffer (250 mM Sucrose, 10 mM KCl, 1 mM EGTA, 1 mM EDTA, 25 mM HEPES, adjusted to pH 7.5 with 1M NaOH). Each lobe of the liver was then removed from the buffer, minced using tweezers and a scalpel into ~5 mm pieces then transferred into a 50 ml Potterton dounce homogenization tube on ice containing 30 ml ice-cold centrifugation buffer (300 mM Trehalose, 25 mM HEPES, 1 mM EGTA, 1 mM EDTA, 10 mM KCl, adjusted to pH 7.5 with 1M NaOH and supplemented with 0.1% bovine serum albumin (BSA) and complete protease inhibitor cocktail (one tablet of inhibitor per 50 mls of buffer). Homogenisation was carried out using a Teflon® pestle at 1800 rpm. The slurry was centrifuged at 800 g for 10 min at 4° C., then the supernatant centrifuged at 10,000 g for 10 min. The pellet was washed once with FLIPR assay buffer (75 mM Mannitol, 25 mM Sucrose, 5 mM Potassium Phosphate Monobasic, 20 mM Tris base, 100 mM KCl, 0.1% BSA adjusted to pH 7.4 with 5M HCl) centrifuged again, then resuspended in FLIPR assay buffer to a concentration of 8.8 mg/ml protein.
Tested compounds (10 mM stock in DMSO) were serially diluted in DMSO in half log steps to generate 10 test concentrations (final concentrations in assay 30 μM to 1 nM). An intermediate dilution of 5 μl DMSO samples into 247 μl FLIPR assay buffer was carried out prior to transfer of 5 μl into duplicate wells of a 384 well polypropylene assay plate. Control wells were 0.5% (v/v) DMSO and 5 μM cyclosporin A.
A stock mitochondria/Fluo5N assay solution was prepared in 5.6 ml FLIPR assay buffer (at RT) supplemented with succinate disodium salt (10 mM), rotenone (1 μM), Fluo5N pentapotassium salt (2 μM) and 1 ml mitochondria suspension, then transferred (15 μl) into the assay plate containing test compounds and incubated for 10 min at RT. Assay plates were processed for fluorescence detection on either a FLIPR Tetra (Molecular Devices) or CLARIOstar (BMG) plate reader. For kinetic fluorescence detection on the FLIPR, dye fluorescence was measured every 3 sec for a total of 10 min. After 12 sec, a 2.5 μl bolus of CaCl2 (75 μM) was added from a source plate containing 675 μM CaCl2 in FLIPR assay buffer. Alternatively, the 2.5 μl addition of CaCl2 was performed using a Viaflow 384, plates were incubated at RT for 10 min, and dye fluorescence measured after 10 min on the CLARIOstar plate reader. pIC50 values for tested compounds were calculated using the fluorescence value collected at the 10 min timepoint on either plate reader, with % inhibition calculated using the DMSO control and cyclosporin A values as 0 and 100% respectively.

mPTP [2] = assay: mPTP activity (Ca2+ retention) assay in isolated rat brain mitochondria; format: biochemical; conditions: isolated rat brain mitochondria; Fluo5N fluorescence at 10 min after Ca2+ (75 μM) bolus
Description: MPTP activity was measured in brain mitochondria freshly isolated from female Sprague Dawley (250 to 300 gram) rats. Anaesthetised rats were perfused in-situ with ~40 ml cold Dulbecco's Phosphate Buffered Saline (DPBS), then brains dissected and transferred into 30 ml Isolation Buffer (225 mM mannitol, 75 mM sucrose, 1 mM EGTA, adjusted to pH 7.4 with 1M NaOH). The brain was minced using tweezers and a scalpel into ~5 mm pieces then transferred into a 50 ml Potterton Dounce homogenization tube on ice containing 10 ml ice-cold isolation buffer (as above with addition of Complete Protease inhibitor; 1 tablet per 50 ml buffer). Homogenisation was carried out using a Teflon® pestle at 1800 rpm. The slurry was centrifuged at 2000 g for 10 min at 4° C., then the supernatant centrifuged at 12,000 g for 9 min. The pellet was resuspended with a dounce homogeniser in isolation buffer as above but with the addition of 0.02% digitonin, centrifuged at 12,000 g for 11 min and finally resuspended in 5 ml modified isolation buffer (as above but with EGTA reduced to 0.1 mM).
Test compounds were prepared in 384 well polypropylene assay plates as described above for the liver mitochondria assay. A stock mitochondria/Fluo5N assay solution was prepared in 5.6 ml assay buffer (120 mM mannitol, 40 mM MOPS, 5 mM KH2PO4, 60 mM KCl, 10 mM pyruvate, 2 mM malate, 2 mM MgCl2, 20 μM ADP, 1.26 μM oligomycin A, adjusted to pH 7.4) supplemented with Fluo5N pentapotassium salt (2 μM) and 1 ml mitochondria suspension, then transferred (15 μl) into the assay plate containing test compounds and incubated for 10 min at RT. Assay plates were then transferred to a FLIPR Tetra plate reader (Molecular Devices). Dye fluorescence was then measured every 3 sec for a total of 10 min.

| Compound | mPTP Rat liver pIC50* (mPTP [1]) | mPTP Rat brain pIC50 (mPTP [2]) |
| --- | --- | --- |
| O=C(c1cncc(=O)[nH]1)N1CC(c2ccccc2)C2(CCCC2)C1 (single isomer, unassigned) [Example 17b, 6-[4-phenyl-2-azaspiro[4.4]nonane-2-carbonyl]-1H-pyrazin-2-one] | <4.52 | <4.52 |
| O=C(c1noc(=O)[nH]1)N1CC(c2cccc(F)c2F)C2(CCC2)C1 (single isomer, unassigned) [Example 44b, 3-(8-(2,3-difluorophenyl)-6-azaspiro[3.4]octane-6-carbonyl)-1,2,4-oxadiazol-5(4H)-one] | <4.52 | 5.19 |
| O=C(c1noc(=O)[nH]1)N1CC(c2ccc(F)cc2)C2(CCC2)C1 (single isomer, unassigned) [Example 41a, 3-(8-(4-fluorophenyl)-6-azaspiro[3.4]octane-6-carbonyl)-1,2,4-oxadiazol-5(4H)-one] | 5.95 | 7.19 |
| O=C(c1cncc(=O)[nH]1)N1CC(c2ccc(F)cc2F)C2(CCC2)C1 (single isomer, unassigned) [Example 37a, 6-(8-(2,4-difluorophenyl)-6-azaspiro[3.4]octane-6-carbonyl)pyrazin-2(1H)-one] | 5.99 | 7.28 |
| CC1(C)CN(C(=O)c2cncc(=O)[nH]2)CC1c1ccccc1 (single isomer, unassigned) [Example 10b, 6-(3,3-dimethyl-4-phenylpyrrolidine-1-carbonyl)pyrazin-2(1H)-one] | 5.19 | 6.07 |
| O=C(c1noc(=O)[nH]1)N1CC(c2ccccc2)C2(CCC2)C1 (stereo not drawn) [Example 24, 3-[8-Phenyl-6-azaspiro[3.4]octane-6-carbonyl]-4H-1,2,4-oxadiazol-5-one] | 6.02 | 6.75 |
| O=C(c1noc(=O)[nH]1)N1CC(c2ccc(F)cc2F)C2(CCC2)C1 (single isomer, unassigned) [Example 48a, 3-(8-(2,4-difluorophenyl)-6-azaspiro[3.4]octane-6-carbonyl)-1,2,4-oxadiazol-5(4H)-one] | 5.53 | 6.47 |
| O=C(c1cncc(=O)[nH]1)N1CC(c2cc(Cl)ccc2F)C2(CCC2)C1 (single isomer, unassigned) [Example 32b] | <4.52 | <4.52 |
| O=C(c1cncc(=O)[nH]1)N1CC(c2ccc(F)c(F)c2)C2(CCC2)C1 (single isomer, unassigned) [Example 45a, 6-(8-(3,4-difluorophenyl)-6-azaspiro[3.4]octane-6-carbonyl)pyrazin-2(1H)-one] | 6.15 | 7.45 |
| O=C(c1cnn[nH]1)N1CC(c2ccccc2)C2(CCC2)C1 (single isomer, unassigned) [Example 14a, 8-Phenyl-6-(3H-1,2,3-triazole-4-carbonyl)-6-azaspiro[3.4]octane] | 5.23 | 5.21 |
| O=C(c1nccc(=O)[nH]1)N1CC(c2ccccc2)C2(CCC2)C1 (single isomer, unassigned) [Example 21a, 2-[8-phenyl-6-azaspiro[3.4]octane-6-carbonyl]-3H-pyrimidin-4-one] | 5.94 | 6.98 |
| O=C(c1cncc(=O)[nH]1)N1CC(c2ccc(Br)cc2)C2(CCC2)C1 (single isomer, unassigned) [Example 29b, 6-(8-(4-bromophenyl)-6-azaspiro[3.4]octane-6-carbonyl)pyrazin-2(1H)-one] | <4.52 | <4.52 |
| O=C(c1noc(=O)[nH]1)N1CC(c2ccccc2)C2(CCC2)C1 (single isomer, unassigned) [Example 34a, 3-(8-phenyl-6-azaspiro[3.4]octane-6-carbonyl)-1,2,4-oxadiazol-5(4H)-one] | 5.57 | 7.37 |
| O=C(c1cc(O)no1)N1CC(c2ccc(F)cc2)C2(CCC2)C1 (single isomer, unassigned) [Example 36b, (8-(4-fluorophenyl)-6-azaspiro[3.4]octan-6-yl)(3-hydroxyisoxazol-5-yl)methanone] | <4.52 | <4.52 |
| O=C(c1ccnc(=O)[nH]1)N1CC(c2ccccc2)C2(CCC2)C1 (single isomer, unassigned) [Example 27b, 6-(8-phenyl-6-azaspiro[3.4]octane-6-carbonyl)pyrimidin-2(1H)-one] | <4.52 | <4.52 |
| O=C(c1cncc(=O)[nH]1)N1CC(c2ccccc2Cl)C2(CCC2)C1 (single isomer, unassigned) [Example 30b, 6-(8-(2-chlorophenyl)-6-azaspiro[3.4]octane-6-carbonyl)pyrazin-2(1H)-one] | <4.52 | <4.52 |
| N#Cc1ccc(C2CN(C(=O)c3cncc(=O)[nH]3)CC23CCC3)cc1 (single isomer, unassigned) [Example 20a, 4-[6-(6-oxo-1H-pyrazine-2-carbonyl)-6-azaspiro[3.4]octan-8-yl]benzonitrile] | <4.52 | 4.64 |
| CCC1CN(C(=O)c2cncc(=O)[nH]2)CC1c1ccccc1 (single isomer, unassigned) [Example 15a, 6-(3-ethyl-4-phenylpyrrolidine-1-carbonyl)pyrazin-2(1H)-one] | 5.27 | 6.1 |
| O=C(c1cncc(=O)[nH]1)N1CC(c2ccccc2F)C2(CCC2)C1 (stereo not drawn) [Example 7, 6-(8-(2-fluorophenyl)-6-azaspiro[3.4]octane-6-carbonyl)pyrazin-2(1H)-one] | 5.95 | 7.11 |
| CC1(C)CN(C(=O)c2cncc(=O)[nH]2)CC1c1ccccc1 (stereo not drawn) [Example 8, 6-(3,3-dimethyl-4-phenylpyrrolidine-1-carbonyl)pyrazin-2(1H)-one] | 6.04 | 6.97 |
| O=C(c1noc(=O)[nH]1)N1CC(c2ccc(F)cc2F)C2(CCC2)C1 (single isomer, unassigned) [Example 48b, 3-(8-(2,4-difluorophenyl)-6-azaspiro[3.4]octane-6-carbonyl)-1,2,4-oxadiazol-5(4H)-one] | <4.52 | <4.52 |
